Drawing on EP1019392B1, “TRICYCLIC AMIDES USEFUL FOR INHIBITION OF G-PROTEIN FUNCTION AND FOR TREATMENT OF PROLIFERATIVE DISEASES” (SCHERING CORPORATION, priority 1995, dated 1997), this text covers IC50 for ten compounds.

Common to all, as to type: cell-based
Assay [1] deals with Ras-CVLS processing in COS monkey kidney cells. Kind of assay: COS cell assay: inhibition of Ras-CVLS processing (Western blot). (Immunoblotting shows a protein as a band on a membrane.)
Assay [2] relates to DLD-1-BAG human colon carcinoma cells expressing as activated K-ras gene. Kind of assay: Cell Mat Assay, DLD-1 tumor cells.
In assay [3] the test system is SW620-BAG human colon carcinoma cells expressing an activated K-ras gene. Description: Cell Mat Assay, SW620 tumor cells.
The subject of assay [4] is Normal human HEPM fibroblasts. Kind of assay: Cell Mat Assay, normal cell mat. The following applies: Homo sapiens, Fibroblast, normal monolayer.
The mark [5] stands for this setting: Homo sapiens, SW-620, Mat assay.

Where two headings read alike, the source gives them in different places. Where only a bound is given, the exact number is not on record here.

As for `O=C(Cc1cc[n+]([O-])cc1)N1CCN([C@H]2c3ccc(Cl)cc3CCc3cc(Br)cnc32)CC1` [Example 16B], the concentration for half-maximal inhibition (IC50) in assay [1] (Primates, COS) was 0.125 µM; in assay [2] (Homo sapiens, DLD-1, Mat assay), 6.25 µM; in assay [3] (setting [5]), 25 µM; in assay [4], more than 25 µM.
In turn, `O=C(Cc1cc[n+]([O-])cc1)N1CCN([C@@H]2c3ccc(Cl)cc3CCc3cc(Br)cnc32)CC1` [Example 16A] registered an IC50 in assay [1] (Primates, COS) of 0.5 µM.
On to `O=C(Cc1cc[n+]([O-])cc1)N1CCC(C2c3ccc(Cl)c(Br)c3CCc3cc(Br)cnc32)CC1` (single isomer, unassigned) [Example 14A], for which the 50% inhibitory concentration (IC50) in assay [1] was 0.48 µM; in assay [2] (Homo sapiens, DLD-1, Mat assay) it was 6.25 µM; in assay [3] (setting [5]), 12.5 µM; in assay [4], more than 25 µM.
For the compound `O=C(Cc1cc[n+]([O-])cc1)N1CCC([C@H]2c3ncc(Br)cc3CCc3cc(Cl)cc(Br)c32)CC1` [Example 9], the IC50 is 0.01 µM in assay [1] (Primates, COS); less than 1.6 µM in assay [2] (Homo sapiens, DLD-1, Mat assay); 6.25 µM in assay [3] (setting [5]); more than 25 µM in assay [4].
For the compound `O=C(Cc1cc[n+]([O-])cc1)N1CCC(=C2c3ncc(Br)cc3CCc3cc(Cl)cc(Br)c32)CC1` (racemic) [Example 7], the IC50 in assay [1] (Primates, COS) is less than 0.25 µM; in assay [3] (setting [5]), 6.25 µM; in assay [4], more than 25 µM.
Take `O=C(Cc1cc[n+]([O-])cc1)N1CCN([C@H]2c3ccc(Cl)c(Br)c3CCc3cc(Br)cnc32)CC1` [Example 5]: the IC50 in assay [2] (Homo sapiens, DLD-1, Mat assay) is 3.1 µM; in assay [3] (setting [5]), 6.25 µM; in assay [4] it was more than 25 µM.
On to `O=C(Cc1cc[n+]([O-])cc1)N1CCN([C@H]2c3ncc(Br)cc3CCc3cc(Cl)cc(Br)c32)CC1` [Example 11A], for which the IC50 is less than 0.025 µM in assay [1] (Primates, COS); less than 1.6 µM in assay [2] (Mat assay); more than 6.25 µM in assay [3] (Mat assay); more than 25 µM in assay [4].
Take `O=C(Cc1cc[n+]([O-])cc1)N1CCC(=C2c3ccc(Cl)c(Br)c3CCc3cc(Br)cnc32)CC1` [Example 2]: the IC50 is 6.25 µM in assay [2] (Homo sapiens, DLD-1, Mat assay); 6.25 µM in assay [3] (setting [5]); more than 25 µM in assay [4].
Turning to `NC(=O)N1CCC(CC(=O)N2CCC(C3c4ccc(Cl)c(Br)c4CCc4cc(Br)cnc43)CC2)CC1` (single isomer, unassigned) [Example 13], the IC50 in assay [1] stood at 0.42 µM.
The compound `NC(=O)N1CCC(CC(=O)N2CCC(C3c4ncc(Br)cc4CCc4cc(Cl)cc(Cl)c43)CC2)CC1` (single isomer, unassigned) [Example 18] gave a 50% inhibitory concentration (IC50) in assay [1] (Primates, COS) of 0.025 µM.

In general, IC50 refers to the concentration needed to halve the response being measured.
